From PubChem BioAssay (NCI)
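Five concentrations, 48 hours, 96-well plates. GI50 marks 50% less growth. Definition used: TGI = concentration required for complete inhibition of growth.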

Columns and labels:
Experiment in all cases: inhibition of tumour cell growth, NCI panel, 48 h
[1] = system: MOLT-4 leukemia
[2] = system: SR leukemia
[3] = system: UACC-257 melanoma
[4] = system: OVCAR-3 ovarian
[5] = system: A549 NSCLC
[6] = system: A498 renal
[7] = system: SNB-19 CNS
[8] = system: MALME-3M melanoma
[9] = system: TK-10 renal
[10] = system: MDA-MB-435

| SMILES | GI50 [1] [nM] | TGI [1] [µM] | GI50 [2] [nM] | TGI [2] [µM] | GI50 [3] [nM] | TGI [3] [µM] | GI50 [4] [µM] | TGI [4] [µM] | GI50 [5] [µM] | TGI [5] [µM] | GI50 [6] [µM] | TGI [6] [µM] | GI50 [7] [µM] | TGI [7] [µM] | GI50 [8] [µM] | TGI [8] [µM] | TGI [9] [µM] | TGI [10] [µM] | GI50 [10] [µM] | GI50 [9] [µM] |
| --- | --- | --- | --- | --- | --- | --- | --- | --- | --- | --- | --- | --- | --- | --- | --- | --- | --- | --- | --- | --- |
| O=C([O-])c1ccccc1Nc1ccccn1.O=C([O-])c1ccccc1Nc1ccccn1.[Ni+2] | 89800 | > 100 | > 100000 | > 100 | > 100000 | > 100 | > 100 | > 100 | > 100 | > 100 | > 100 | > 100 | > 100 | > 100 | > 100 | > 100 | – | – | – | – |
| C[N+](C)(C)CC(=O)N/N=C(/Cc1nc2c3c(ccc2[nH]c1=O)C(=O)c1ccccc1C3=O)C(=O)Nc1ccc(Cl)c(Cl)c1 | – | > 100 | – | > 100 | – | > 100 | – | > 100 | – | > 100 | – | > 100 | – | – | – | > 100 | > 100 | – | – | – |
| CCCc1[nH]nc(CCC(=O)N(Cc2ccccc2)Cc2ccccc2)c1CC | – | > 100 | – | – | – | > 100 | – | > 100 | – | > 100 | – | > 100 | – | > 100 | – | > 100 | > 100 | – | – | – |
| Cc1cccc(NC(=O)CC(=O)N2N=C(N(CCC#N)c3ccc(Cl)cc3)CC2c2ccccc2)c1 (stereo not drawn) | – | > 100 | – | > 100 | – | > 100 | – | > 100 | – | > 100 | – | – | – | > 100 | – | > 100 | > 100 | – | – | – |
| Cc1ccc(-c2c(N)[n+]([O-])c3ccccc3[n+]2[O-])cc1 | – | > 100 | – | – | – | 23.5 | – | 30.3 | – | 62.3 | – | – | – | 25.4 | – | 10.8 | 33 | – | – | – |
| N#C/C(=C1\OC(=O)C(c2ccc(Br)cc2)=C1O)c1ccc(Br)cc1 | – | 57.1 | – | 55.6 | – | 29.5 | – | 28.2 | – | 44.2 | – | 28.9 | – | 27.5 | – | 31 | 36.7 | – | – | – |
| CNC(=O)OCc1nc(SC2CCCCO2)n(C)c1COC(=O)NC (stereo not drawn) | – | > 100 | – | > 100 | – | > 100 | – | > 100 | – | > 100 | – | > 100 | – | > 100 | – | > 100 | – | – | – | – |
| C1CCSCCCCSCCCCSCCCCSC1 | – | – | – | – | – | > 100 | – | > 100 | – | > 100 | – | > 100 | – | > 100 | – | – | > 100 | > 100 | – | – |
| CN(C)/C=C/c1nnc([N+](=O)[O-])s1 | – | – | – | – | – | 27.2 | – | 7.58 | – | 66.4 | – | 67.6 | – | 79.3 | – | 14.6 | 58.5 | 14.2 | – | – |
| COc1cccc(NC(=O)CC(=O)N2N=C(N(CCC#N)c3ccc(Cl)cc3)CC2c2ccccc2)c1 (stereo not drawn) | – | > 100 | – | > 100 | – | > 100 | – | > 100 | – | > 100 | – | > 100 | – | > 100 | – | > 100 | > 100 | – | – | – |
| CC(=O)NNc1nc(C)c(C(=O)NNC(=O)C(=O)Nc2ccccc2C#N)s1 | – | > 100 | – | > 100 | – | > 100 | – | > 100 | – | > 100 | – | > 100 | – | > 100 | – | > 100 | > 100 | – | – | – |
| O=C1c2ccccc2-c2c1c1ccccc1c(=O)n2CCCNCCCNCCCn1c2c(c3ccccc3c1=O)C(=O)c1ccccc1-2 | < 10 | – | – | – | 811 | 2.25 | 0.0818 | 0.232 | 0.0174 | 0.183 | 1.25 | 2.61 | 0.681 | 4.1 | – | – | 0.732 | 2.26 | 0.338 | – |
| Cc1ccc(/C=C2\CN(C(=O)OC(C)(C)C)C/C(=C\c3ccc(C)cc3)C2=O)cc1 | 805 | > 41.9 | 34.6 | > 100 | – | > 100 | 0.352 | – | – | > 100 | – | > 100 | 0.226 | > 100 | – | > 100 | > 100 | – | – | > 40.7 |
| COc1cc2c(cc1OC)C(N(C)C)C(c1ccccc1)=C2Cl (stereo not drawn) | – | 39.6 | – | 50.4 | – | 40.5 | – | 40.8 | – | – | – | 59.7 | – | > 100 | – | – | > 100 | – | – | – |
| COc1ccc(-c2ccc(/C=N/n3c(COc4ccc(Cl)cc4Cl)n[nH]c3=S)o2)c([N+](=O)[O-])c1 | 14000 | 38.9 | – | – | – | – | 16.1 | 46.3 | 19.5 | > 100 | 16.8 | 41.5 | 28.4 | > 100 | 19.9 | 45.1 | 49.2 | 38 | 18.1 | 16.8 |
| O=C(CC(=O)CC(O)(C(F)(F)F)C(F)(F)F)CC(O)(C(F)(F)F)C(F)(F)F | – | > 10 | – | – | – | > 10 | – | > 10 | – | > 10 | – | > 10 | – | > 10 | – | > 10 | > 10 | > 10 | – | – |
| NC(=S)N/N=C(/CC(=O)c1ccccc1)C(=O)Nc1ccc(Cl)c(Cl)c1 | – | 93.7 | – | – | – | > 100 | – | > 100 | – | > 100 | – | > 100 | – | > 100 | – | > 100 | > 100 | – | – | – |
| Cc1ccc(C(=O)O/N=C2/CCC/C2=C\c2ccccc2)cc1 | – | > 100 | – | > 100 | – | > 100 | – | > 100 | – | > 100 | – | > 100 | – | – | – | > 100 | > 100 | – | – | – |
| CC1=NOC(=O)/C1=C/c1ccccc1O | – | > 100 | – | > 100 | – | > 100 | – | > 100 | – | > 100 | – | – | – | > 100 | – | > 100 | > 100 | – | – | – |
| CNC(=O)n1ccc2cc(Oc3ccnc(NC(=O)c4ccc(C5CCN(CCO)CC5)cc4)c3)c(OCCOC)cc21 | 2650 | 12.7 | 2270 | 25 | 2240 | 5.73 | 3.67 | 11 | 5.27 | 21.4 | – | – | 7.47 | 21.5 | 1.62 | 3.15 | 29.6 | 11.8 | 3.2 | 15.3 |
